Experimental data from US6756382B2, “Amide substituted imidazoquinolines” (3M Innovative Properties Company, priority 1999, dated 2004).

Experiments:
[1] = test system: tumor necrosis factor (α); experiment: Cytokine induction in human cells: tumor necrosis factor (α) secreted by PBMCs, ELISA; assay type: cell-based; conditions: PBMC, incubated 18 to 24 hours, TNF determined by ELISA, read-out: Lowest Effective Concentration (μM) Tumor Necrosis Factor
Procedure, shortened: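 Human donor PBMCs at final 1.5-2×10^6 cells/mL in RPMI with 10% FBS incubated 18 to 24 h at 37° C. with serially diluted compound, DMSO at most 1% final. Supernatant TNF-α measured by ELISA; value is the lowest concentration inducing TNF.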

[2] = test system: interferon (α); experiment: Cytokine induction in human cells: interferon secreted by PBMCs, bioassay (A549 cells challenged with encephalomyocarditis virus); assay type: cell-based; conditions: PBMC, incubated 18 to 24 hours, interferon determined using the bioassay method, read-out: Lowest Effective Concentration (μM) Interferon
From the text: An in vitro human blood cell system was used to assess cytokine induction by compounds of the invention. Activity is based on the measurement of interferon and tumor necrosis factor (α) (IFN and TNF, respectively) secreted into culture media as described by Testerman et. al. In “Cytokine Induction by the Immunomodulators Imiquimod and S-27609”, Journal of Leukocyte Biology, 58, 365-372 (September, 1995).
Whole blood is collected by venipuncture into EDTA vacutainer tubes from healthy human donors. Peripheral blood mononuclear cells (PBMCs) are separated from whole blood by density gradient centrifugation using Histopaque®-1077 (Sigma Chemicals, St. Louis, Mo.). The PBMCs are suspended at 3-4×10^6 cells/mL in RPMI 1640 medium containing 10% fetal bovine serum, 2 mM L-glutamine and 1% penicillin/streptomycin solution (RPMI complete). The PBMC suspension is added to 48 well flat bottom sterile tissue culture plates (Costar, Cambridge, Mass. or Becton Dickinson Labware, Lincoln Park, N.J.) containing an equal volume of RPMI complete media containing test compound.
The compounds are solubilized in dimethyl sulfoxide (DMSO). The DMSO concentration should not exceed a final concentration of 1% for addition to the culture wells.
The solution of test compound is added at 60 μM to the first well containing RPMI complete and serial (three fold or ten fold) dilutions are made. The PBMC suspension is then added to the wells in an equal volume, bringing the test compound concentrations to the desired range. The final concentration of PBMC suspension is 1.5-2×10^6 cells/mL. The plates are covered with sterile plastic lids, mixed gently and then incubated for 18 to 24 hours at 37° C. in a 5% carbon dioxide atmosphere.
Following incubation the plates are centrifuged for 5-10 minutes at 1000 rpm (˜200×g) at 4° C. The cell culture supernatant is removed with a sterile polypropylene pipet and transferred to sterile polypropylene tubes. Samples are maintained at −30 to −70° C. until analysis. The samples are analyzed for interferon (α) by either ELISA or bioassay and for tumor necrosis factor (α) by ELISA.
Interferon is determined by bioassay using A549 human lung carcinoma cells challenged with encephalomyocarditis. The details of the bioassay method have been described by G. L. Brennan and L. H. Kronenberg in “Automated Bioassay of Interferons in Micro-test Plates”, Biotechniques, June/July, 78, 1983, incorporated herein by reference. Briefly stated the method is as follows: A549 cells are incubated with dilutions of samples or a standard interferon at 37° C. for 24 hours. The incubated cells are then infected with an inoculum of encephalomyocarditis virus. The infected cells are incubated for an additional 24 hours at 37° C. before evaluating for viral cytopathic effect. The viral cytopathic effect is quantified by staining with crystal violet followed by visual scoring of the plates. Results are expressed as alpha reference units/mL based on the value obtained for NIH Human Leukocyte IFN standard.
The table below lists the lowest concentration found to induce interferon and the lowest concentration found to induce tumor necrosis factor for each compound. […] Unless otherwise indicated, the interferon biosynthesis was determined by ELISA.

[3] = test system: interferon (α); experiment: Cytokine induction in human cells: interferon secreted by PBMCs, ELISA; assay type: cell-based; conditions: PBMC, incubated 18 to 24 hours, interferon determined by ELISA, read-out: Lowest Effective Concentration (μM) Interferon
Procedure, shortened: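 Human donor PBMCs at 1.5-2×10^6 cells/mL final in RPMI with 10% FBS, exposed to serially diluted compound (≤1% DMSO) for 18–24 h at 37 °C, 5% CO2. Supernatant interferon (α) measured by ELISA; value is lowest concentration inducing interferon.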

melting point | SMILES | minimal effective concentration [1] | minimal effective concentration [2] | minimal effective concentration [3]
– | Nc1nc2ccccc2c2c1ncn2CCCCNC(=O)c1c(F)c(F)c(F)c(F)c1F [Example 68] | 10 µM | 1.11 µM | –
– | Nc1nc2ccccc2c2c1ncn2CCCCNC(=O)c1ccccc1Cl [Example 69] | 1.11 µM | 0.12 µM | –
– | Nc1nc2ccccc2c2c1ncn2CCCCNC(=O)c1c(Cl)cccc1Cl [Example 71] | 3.33 µM | 0.12 µM | –
– | Nc1nc2ccccc2c2c1ncn2CCCCNC(=O)c1ccc(F)cc1 [Example 72] | 10 µM | 0.37 µM | –
– | Nc1nc2ccccc2c2c1ncn2CCCCNC(=O)c1ccc(Cl)cc1 [Example 73] | 10 µM | 0.37 µM | –
– | COc1ccc(C(=O)NCCCCn2cnc3c(N)nc4ccccc4c32)cc1 [Example 74] | 10 µM | 0.37 µM | –
– | Nc1nc2ccccc2c2c1ncn2CCCCNC(=O)c1ccc(C(F)(F)F)cc1 [Example 75] | – | 1.11 µM | –
– | CC(C)(C)c1ccc(C(=O)NCCCCn2cnc3c(N)nc4ccccc4c32)cc1 [Example 76] | – | 3.33 µM | –
– | Cc1ccc(C(=O)NCCCCn2cnc3c(N)nc4ccccc4c32)cc1 [Example 77] | 10 µM | 1.11 µM | –
– | Nc1nc2ccccc2c2c1ncn2CCCCNC(=O)Cc1ccccc1 [Example 78] | 10 µM | 0.12 µM | –
– | Nc1nc2ccccc2c2c1ncn2CCCCNC(=O)/C=C/c1ccccc1 [Example 79] | > 30 µM | 0.37 µM | –
– | CC(C)(C)CC(=O)NCCCCn1cnc2c(N)nc3ccccc3c21 [Example 80] | 10 µM | 1.11 µM | –
– | Nc1nc2ccccc2c2c1ncn2CCCCNC(=O)C1CC1 [Example 81] | 30 µM | 3.33 µM | –
– | Nc1nc2ccccc2c2c1ncn2CCCCNC(=O)C1CCCC1 [Example 82] | 10 µM | 0.12 µM | –
– | Nc1nc2ccccc2c2c1ncn2CCCCNC(=O)CCC1CCCC1 [Example 83] | – | 1.11 µM | –
– | Nc1nc2ccccc2c2c1ncn2CCCCNC(=O)C1CCCCC1 [Example 84] | 10 µM | 0.12 µM | –
103 to 125 °C | COCCc1nc2c(N)nc3ccccc3c2n1CC(C)(C)CNC(=O)c1ccccc1 [Example 190, N-{3-[4-amino-2-(2-methoxyethyl)-1H-imidazo[4,5-c]quinolin-1-yl]-2,2-dimethylpropyl}benzamide] | 0.01 µM | – | 0.01 µM
198 to 198.5 °C | COCCc1nc2c(N)nc3ccccc3c2n1CCCNC(=O)c1cc2ccccc2cn1 [Example 192, N-{3-[4-amino-2-(2-methoxyethyl)-1H-imidazo[4,5-c]quinolin-1-yl]propyl}isoquinoline-3-carboxamide] | 0.37 µM | – | 0.12 µM
192 to 194 °C | Nc1nc2ccccc2c2c1nc(CCCOc1ccccc1)n2CCCNC(=O)c1ccccc1 [Example 194, N-{3-[4-amino-2-(3-phenoxypropyl)-1H-imidazo[4,5-c]quinolin-1-yl]propyl}benzamide] | 10 µM | – | > 30 µM
183 to 186 °C | COCCc1nc2c(N)nc3ccccc3c2n1CCCNC(=O)c1ccccc1 [Example 196, N-{3-[4-amino-2-(2-methoxyethyl)-1H-imidazo[4,5-c]quinolin-1-yl]propyl}benzamide] | 0.37 µM | – | 0.01 µM
